Experimental data from ChEMBL document CHEMBL1201862, “PubChem BioAssay data set” (2004).
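All cell lines were grown in 96-well plates and treated with compound for 48 hours. Abbreviation: GI50, concentration required for 50% inhibition of growth.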 Active and inactive are the calls of the source. No stated cut-off is given here; in the data, active = GI50 up to about 1.1 µM and inactive = higher.

Key:
Experiment in all cases: DTP human tumour cell line panel, 48 h
LOX IMVI = system: LOX IMVI
COLO 205 = system: COLO 205
RPMI-8226 = system: RPMI-8226
UO-31 = system: UO-31
EKVX = system: EKVX
SK-MEL-2 = system: SK-MEL-2
SF-295 = system: SF-295
MDA-N = system: MDA-N
U-251 = system: U-251
MOLT-4 = system: MOLT-4
SK-MEL-28 = system: SK-MEL-28
HCT-116 = system: HCT-116
SK-MEL-5 = system: SK-MEL-5
NCI-H522 = system: NCI-H522
M14 = system: M14
OVCAR-4 = system: OVCAR-4
786-0 = system: 786-0
K562 = system: K562
KM12 = system: KM12
OVCAR-3 = system: OVCAR-3

SMILES	GI50 (LOX IMVI)	GI50 (COLO 205)	GI50 (RPMI-8226)	GI50 (UO-31)	GI50 (EKVX)	GI50 (SK-MEL-2)	GI50 (SF-295)	GI50 (MDA-N)	GI50 (U-251)	GI50 (MOLT-4)	GI50 (SK-MEL-28)	GI50 (HCT-116)	GI50 (SK-MEL-5)	GI50 (NCI-H522)	GI50 (M14)	GI50 (OVCAR-4)	GI50 (786-0)	GI50 (K562)	GI50 (KM12)	GI50 (OVCAR-3)
COc1ccc(O[C@H](COCc2ccccc2)C[C@@H]2COC(C)(C)O2)cc1	> 100 µM (inactive)	> 100 µM (inactive)	> 100 µM (inactive)	> 100 µM (inactive)	> 100 µM (inactive)	> 100 µM (inactive)	> 100 µM (inactive)	> 100 µM (inactive)	> 100 µM (inactive)	> 100 µM (inactive)	> 100 µM (inactive)	> 100 µM (inactive)	> 100 µM (inactive)	> 100 µM (inactive)	> 100 µM (inactive)	> 100 µM (inactive)	> 100 µM (inactive)	> 100 µM (inactive)	> 100 µM (inactive)	> 100 µM (inactive)
CCSc1nc(N2CCCC2)s[s+]1.[O-][Cl+3]([O-])([O-])[O-]	19.1 µM (inactive)	2.23 µM (inactive)	0.318 µM (active)	42.1 µM (inactive)	67.3 µM (inactive)	60.7 µM (inactive)	54.6 µM (inactive)	16.3 µM (inactive)	56.4 µM (inactive)	3.29 µM (inactive)	36.5 µM (inactive)	28.4 µM (inactive)	0.08 µM (active)	0.346 µM (active)	25.4 µM (inactive)	50.8 µM (inactive)	58.1 µM (inactive)	1 µM (active)	39.4 µM (inactive)	3.58 µM (inactive)
CCOC(=O)/C=C(\C(=O)OCC)n1cnc2c(N)ncnc21	3.43 µM (inactive)	1.99 µM (inactive)	2.02 µM (inactive)	16.5 µM (inactive)	8.2 µM (inactive)	16.8 µM (inactive)	16.8 µM (inactive)	14.6 µM (inactive)	7.94 µM (inactive)	2.44 µM (inactive)	13.6 µM (inactive)	3.11 µM (inactive)	14.7 µM (inactive)	1.6 µM (inactive)	10.4 µM (inactive)	15.2 µM (inactive)	2.77 µM (inactive)	1.99 µM (inactive)	14.8 µM (inactive)	8.41 µM (inactive)
CN1CCN(c2cc3nc4cc(O)cc(O)c4c(O)c3cc2N)CC1	16.2 µM (inactive)	14 µM (inactive)	20.8 µM (inactive)	19.7 µM (inactive)	19.4 µM (inactive)	19.4 µM (inactive)	32.7 µM (inactive)	23.4 µM (inactive)	17.6 µM (inactive)	0.33 µM (active)	27.2 µM (inactive)	35.8 µM (inactive)	18.5 µM (inactive)	19.5 µM (inactive)	37.1 µM (inactive)	27.4 µM (inactive)	38.7 µM (inactive)	14.5 µM (inactive)	27.4 µM (inactive)	20.7 µM (inactive)
O=C1c2c(Br)sc(Br)c2[C@@H](Cl)[C@H]1Cl	15.2 µM (inactive)	15.7 µM (inactive)	18.2 µM (inactive)	20.2 µM (inactive)	21.7 µM (inactive)	18.9 µM (inactive)	20.5 µM (inactive)	11 µM (inactive)	14.5 µM (inactive)	14.9 µM (inactive)	23.3 µM (inactive)	22.8 µM (inactive)	16.1 µM (inactive)	3.07 µM (inactive)	19.7 µM (inactive)	18.2 µM (inactive)	24.5 µM (inactive)	10 µM (inactive)	17.2 µM (inactive)	14.3 µM (inactive)
Cc1ccc(-c2cn3c(nc4ccccc43)c(C)n2)cc1	71.6 µM (inactive)	49.9 µM (inactive)	30.7 µM (inactive)	2.71 µM (inactive)	> 54 µM (inactive)	> 43.4 µM (inactive)	> 58.1 µM (inactive)	54.1 µM (inactive)	32.4 µM (inactive)	43.7 µM (inactive)	58.2 µM (inactive)	32 µM (inactive)	10.7 µM (inactive)	31.2 µM (inactive)	39.5 µM (inactive)	59 µM (inactive)	25.8 µM (inactive)	43.5 µM (inactive)	> 100 µM (inactive)	48 µM (inactive)
CN(C)CCNC(=O)c1cccc2nc3cccc(F)c3nc12	0.614 µM (active)	0.317 µM (active)	0.8 µM (active)	0.883 µM (active)	2.16 µM (inactive)	2.13 µM (inactive)	1.52 µM (inactive)	1.46 µM (inactive)	1.38 µM (inactive)	0.366 µM (active)	3.01 µM (inactive)	0.542 µM (active)	1.13 µM (inactive)	1.05 µM (active)	2.01 µM (inactive)	1.47 µM (inactive)	0.653 µM (active)	1.29 µM (inactive)	1.42 µM (inactive)	1.99 µM (inactive)
